Measured values published in patent US20080131920A1, “Ion flux in biological processes, and methods related thereto” (priority 2005, published 2008).

Assays:
[1] = test system: Vmem of Xenopus blastomeres; test: Membrane voltage imaging of blastomeres with DiBAC4(3); format: in vivo, Xenopus laevis; details: control vs treated embryos
Excerpt: Embryos marked with Alexa 647 dextran in the right ventral cell (RV) at the four cell stage (to allow orientation with respect to both axes) were monitored using DiBAC4(3) at the 4, 8, 16, and 32 cell stages. At 16 cells, we observed hyperpolarization of the RV quadrant, relative to the LV quadrant. DiBAC4(3) intensity on the left was greater than on the right. This pattern and its embryological timing are consistent with the self-referencing probe data, and with the hypothesis that higher net H^+ efflux from the right side results in a difference in membrane potential across the ventral midline.
We confirmed this in Xenopus blastomeres by imaging Vmem in vivo in control and concanamycin-treated embryos. Predicting that the membrane would depolarize if H^+-V-ATPase-based proton efflux was inhibited, we monitored Vmem using the voltage-reporting dye DiBAC4(3).
Bis-(1,3-[…])-trimethine oxanol (DiBAC4(3), Molecular Probes, Eugene, Oreg.) is a membrane-permeant, fluorescent molecule that accumulates inside a cell in proportion to the membrane voltage. Because it is anionic, the more depolarized a cell, the greater the accumulation of DiBAC4(3) and the greater the intensity of intracellular, relative to extracellular, fluorescence. […]. The dye was excited with 488 nm light from an argon laser and a 20 nm band of emission wavelengths centered at 515 was collected.

XNr-1 = test: Left-sided XNr-1 expression by whole mount in situ hybridization; design: species or system Xenopus laevis; details: in vivo
Procedure: As outlined above, effects on asymmetry were initially evaluated by inspection of embryo morphology. […] Embryos were treated with the H^+-V-ATPase inhibitory compound concanamycin.
Whole mount in situ hybridization (WISH) on Xenopus was performed according to standard methods. DNA used to transcribe in situ hybridization probes were XNr-1 (Lohr et al., 1998, Developmental Genetics 23: 194-202; Lowe et al., 1996, Nature 381: 158-161); cShh (Levin et al., 1995, Cell 82: 803-814); cNodal (Levin et al., 1995, Cell 82: 803-814).

axons of the tail = test: Axonal patterning in regenerating tails (acetylated α-tubulin immunohistochemistry); design: species or system Xenopus laevis; details: in vivo
Excerpt: Finally, to characterize downstream morphogenetic consequences of V-ATPase abrogation, we traced axonal paths during regeneration using immunohistochemistry with an acetylated α-tubulin antibody. In normally regenerating tails, axons appear increased in number (relative to the uncut portion of tail) and they extend into the bud in bundles parallel to the main anterior-posterior axis of the tail (FIG. 14H; green arrows indicate normal axon patterning, while black arrows indicate abnormal axon number and/or location). […] Moreover, in normal refractory tails, there is no apparent increase in the number of axons, and those that are present terminate well anterior of the tail tip (FIG. 14K). […]
Axon and muscle marker detection was performed using fluorescent secondary antibodies. […] Fluorescence images were collected on a Leica TCS SPZ confocal imaging system; λex=543. […] Background autofluorescence was removed by segmentation of the original fluorescence images. The brightest pixels could readily be selected such that the selection best represented the pattern of axons. […]

[2] = test system: Xenopus tail regeneration

In the case of `C/C=C/[C@H]1O[C@@](O)([C@@H](C)[C@H](O)[C@H](C)[C@H]2OC(=O)/C(OC)=C/C(C)=C/[C@@H](C)[C@@H](O)[C@@H](CC)[C@@H](O)[C@H](C)C/C(C)=C/C=C/[C@@H]2OC)C[C@@H](O)[C@@H]1C` [concanamycin], the “effect on Vmem” value [1] is reported as “depolarizes Vmem”, the “left-sided gene expression of XNr-1” value (XNr-1) is reported as “perturbed the normally left-sided gene expression” and the “axon patterning in V-ATPase-inhibited tails” value (axons of the tail) is reported as “axon patterning is abnormal”. For the same molecule, the general toxicity ([2]; 150 nM) was “absence of general toxicity”, the “effect on tail regeneration” value ([2]; 150 nM, larvae amputated at stage 41) was “strong inhibition of regeneration” and the “effect on rate or extent of tail regeneration” value ([2]; compound in medium beginning immediately after tail amputation (stage 40-41)) was “absence of regeneration”. The “Regeneration Index Treated/Control” value ([2]; tail regeneration in the compound versus control) was 23% and the “Regeneration Index Treated” value ([2]; tail regeneration in the compound, RI computed for each dish of embryos) was 49.
